The values below come from ChEMBL document CHEMBL1201862, “PubChem BioAssay data set” (2004).

Experiment in all cases: NCI tumour cell line growth inhibition, 48 h
Assay [1] has as its system SF-295.
For assay [2], the system named is RXF 393.
Assay [3] has as its system UACC-62.
The subject of assay [4] is HCT-15.
For assay [5], the system named is NCI-H23.
The test system of assay [6] is UACC-257.
In assay [7] the test system is Malme-3M.
For assay [8], the system named is SK-OV-3.
Assay [9] relates to MDA-MB-231.
In assay [10] the test system is 786-0.
Assay [11] relates to SK-MEL-2.
Assay [12] deals with SN12C.
Assay [13] deals with SK-MEL-28.
In assay [14] the test system is OVCAR-5.
The subject of assay [15] is SF-539.
Assay [16] has as its system CAKI-1.
Assay [17] has as its system SR.
Assay [18] relates to DU-145.
For assay [19], the system named is TK-10.
Assay [20] has as its system NCI-H226.

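Briefly, cells in 96-well plates were exposed to five compound concentrations for 48 h, and endpoints were estimated by linear interpolation. Here, GI50 denotes the concentration required for 50% inhibition of growth.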 The source made the active and inactive calls. Rule as the data show it: active = GI50 up to about 1.1 µM and inactive = higher. Peptide text beside a SMILES is read from it. * marks the point of attachment. Boc = CC(C)(C)OC(=O)*

`CCOC(=O)c1ccc(/N=C/C=C(\Nc2ccc(C(=O)OCC)cc2)C23CC4CC(CC(C4)C2)C3)cc1`: the GI50 in assay [1] is 52.1 µM (inactive); in assay [2], 27 µM (inactive); in assay [3], 31 µM (inactive); in assay [4], 92.3 µM; in assay [5], 54 µM (inactive); in assay [6] it was 35.9 µM (inactive). In addition, the GI50 is > 100 µM (inactive) in assay [7]; > 100 µM (inactive) in assay [8]; > 100 µM (inactive) in assay [9]; 56.1 µM (inactive) in assay [10]; > 100 µM (inactive) in assay [11]; 53.2 µM (inactive) in assay [12]. In addition, the GI50 is > 100 µM (inactive) in [13]; 35.8 µM (inactive) in assay [14]; 28.2 µM (inactive) in assay [15]; > 100 µM (inactive) in assay [16]; 11.1 µM (inactive) in assay [17]; 55.1 µM (inactive) in assay [18]. For the same compound, the figures for the GI50 in assay [19] and in assay [20] were 71.6 µM (inactive) and > 100 µM (inactive), respectively.

Turning to `CC1(C)OCC(CO)(Nc2nc(N3CC3)nc(N3CC3)n2)CO1`, the GI50 is 2.96 µM (inactive) in assay [1]; 13.2 µM (inactive) in [2]; 3.15 µM (inactive) in assay [3]; 15.2 µM in assay [4]; 4.12 µM (inactive) in assay [5]; 14.7 µM (inactive) in assay [6]. The GI50 in assay [7] is 16.9 µM (inactive); in assay [8], 5.78 µM (inactive); in assay [9], > 10 µM (inactive); in assay [10] it was 3.88 µM (inactive); in [11], 19 µM (inactive); in assay [12], 7.71 µM (inactive). The GI50 in assay [13] was 19.5 µM (inactive); in [14] it was 20 µM (inactive); in assay [15], 4.18 µM (inactive); in assay [16], 1.52 µM (inactive); in assay [17], 0.483 µM (active); in assay [18] it was 1.3 µM (inactive). Further, the GI50 is 24.6 µM (inactive) in assay [19] and 8.13 µM (inactive) in assay [20].

`COc1cc2nn(-c3ccccc3)nc2c2nonc12`: the GI50 in assay [1] was > 100 µM (inactive); in [2], > 100 µM (inactive); in assay [3] it was > 100 µM (inactive); in assay [4], over 100 µM; in assay [5] it was > 100 µM (inactive); in [6] it was > 100 µM (inactive). Also, the GI50 in assay [7] is > 100 µM (inactive); in assay [8] it was > 100 µM (inactive); in assay [9], > 100 µM (inactive); in assay [10] it was 91.6 µM (inactive); in assay [11] it was > 100 µM (inactive); in assay [12], > 100 µM (inactive). Also, the GI50 in assay [13] is > 100 µM (inactive); in assay [14], > 100 µM (inactive); in assay [15], 87.5 µM (inactive); in assay [16], > 100 µM (inactive); in assay [17] it was > 100 µM (inactive); in assay [18] it was > 100 µM (inactive). Moreover, the GI50 in assay [19] and in assay [20] was > 100 µM (inactive) in each case.

Consider `NS(=O)(=O)c1nnc(NC(=O)c2ccccc2)s1`, for which the GI50 in assay [1] is > 100 µM (inactive); in assay [2], > 100 µM (inactive); in assay [3], > 100 µM (inactive); in [4], over 100 µM; in assay [5], > 100 µM (inactive); in assay [6], > 100 µM (inactive). Besides, the GI50 in assay [7], in assay [8], in assay [9], in assay [10], in [11] and in assay [12] was > 100 µM (inactive) each time. Besides, the GI50 in assay [13], in [14], in assay [15], in assay [16], in [17] and in assay [18] was > 100 µM (inactive) each time. Also, the GI50 in assay [19] and in [20] was > 100 µM (inactive) in each case.

Regarding `CS(=O)(=O)OCCN(CCOS(C)(=O)=O)c1ccc(/C=N/c2cccc(Cl)c2)cc1`, the GI50 in assay [1] was 1.46 µM (inactive); in assay [2], 2.78 µM (inactive); in assay [3], 1.5 µM (inactive); in assay [4], 1.02 µM; in assay [5], 1.66 µM (inactive); in assay [6] it was 2.84 µM (inactive). For the same compound, the GI50 in [7] is 12.4 µM (inactive); in assay [8] it was 0.561 µM (active); in assay [9], 11.5 µM (inactive); in assay [10], 0.813 µM (active); in assay [11] it was 23.8 µM (inactive); in assay [12] it was 1.4 µM (inactive). In addition, the GI50 was 10.4 µM (inactive) in assay [13]; 2.95 µM (inactive) in assay [14]; 3.68 µM (inactive) in assay [15]; 0.239 µM (active) in assay [16]; 0.0537 µM (active) in assay [17]; 1.27 µM (inactive) in [18]. In addition, the GI50 was 2.19 µM (inactive) in [19] and 2.06 µM (inactive) in [20].

For the compound `CN(CC#N)C(=O)Cc1ccc([N+](=O)[O-])cc1`, the GI50 was > 10 µM (inactive) in assay [1]; > 10 µM (inactive) in assay [2]; > 10 µM (inactive) in assay [3]; over 10 µM in assay [4]; > 10 µM (inactive) in [5]; > 10 µM (inactive) in assay [6]. Moreover, the GI50 in [7], in assay [8], in [9], in [10], in assay [11] and in [12] was > 10 µM (inactive) each time. The GI50 in [13], in [14], in assay [15], in assay [16], in assay [17] and in assay [18] was > 10 µM (inactive) in each case. Also, the GI50 in assay [19] and in assay [20] was > 10 µM (inactive) throughout.

Turning to `C#CC1(O)CCC2[C@@H]3CCc4cc(Oc5nc(F)nc(-c6c(C)c(C(=O)OCC)n7ccccc67)n5)ccc4C3CC[C@@]21C` (stereo not given in full), the GI50 in assay [1] was > 100 µM (inactive); in assay [2], > 100 µM (inactive); in [3], > 100 µM (inactive); in [4] it was over 100 µM; in assay [5], > 100 µM (inactive); in assay [6] it was > 100 µM (inactive). Further, the GI50 in assay [7], in assay [8], in assay [9], in [10], in assay [11] and in assay [12] was > 100 µM (inactive) throughout. The GI50 in [13], in assay [14], in [15], in [16], in assay [17] and in assay [18] was > 100 µM (inactive) throughout. The GI50 in assay [19] and in [20] was > 100 µM (inactive) each time.

For the compound `c1ccc2c(CC3NCCN3)cccc2c1`, the GI50 in assay [1] was > 100 µM (inactive); in [2], > 100 µM (inactive); in [3], > 100 µM (inactive); in assay [4], over 100 µM; in assay [5], > 100 µM (inactive); in [6], > 100 µM (inactive). For the same compound, the GI50 in [7], in assay [8], in assay [9], in assay [10], in assay [11] and in [12] was > 100 µM (inactive) throughout. For the same compound, the GI50 in assay [13], in assay [14], in [15], in assay [16], in assay [17] and in [18] was > 100 µM (inactive) each time. Also, the GI50 in assay [19] and in assay [20] was > 100 µM (inactive) each time.

Take `NN/C(=N\S(=O)(=O)c1cc(Cl)c(Oc2ccc([N+](=O)[O-])cc2Cl)c(Cl)c1)Nc1ccc(Cl)cc1`: the GI50 is 20.4 µM (inactive) in assay [1]; 13.2 µM (inactive) in assay [2]; 15.5 µM (inactive) in assay [3]; 19.2 µM in assay [4]; 16.5 µM (inactive) in assay [5]; 17.6 µM (inactive) in assay [6]. For the same compound, the GI50 in assay [7] is 21.8 µM (inactive); in [8], 44.7 µM (inactive); in assay [9], 18.4 µM (inactive); in assay [10] it was 18.2 µM (inactive); in [11], 18 µM (inactive); in assay [12], 17.4 µM (inactive). The GI50 in assay [13] was 21.5 µM (inactive); in [14], 24.4 µM (inactive); in [15], 14.7 µM (inactive); in [16], 17.9 µM (inactive); in assay [17] it was 16.6 µM (inactive); in assay [18] it was 19.2 µM (inactive). Moreover, the GI50 in [19] is 19.3 µM (inactive); in assay [20], 15.9 µM (inactive).

In the case of `COC(=O)C(Cc1ccccc1)NC(=O)C(CS)NC(=O)OC(C)(C)C` (stereo not drawn) (Boc-Cys-Phe-OMe; configuration not given here), the GI50 in [1] was > 100 µM (inactive); in assay [2] it was 26 µM (inactive); in assay [3], > 100 µM (inactive); in assay [4], over 100 µM; in assay [5] it was > 100 µM (inactive); in assay [6], > 100 µM (inactive). In addition, the GI50 in [7] is > 100 µM (inactive); in [8] it was > 100 µM (inactive); in [9], 26.9 µM (inactive); in assay [10] it was > 100 µM (inactive); in [11], > 100 µM (inactive); in assay [12], > 100 µM (inactive). In addition, the GI50 in assay [13] is > 100 µM (inactive); in assay [14], > 100 µM (inactive); in assay [15], > 100 µM (inactive); in assay [16], > 100 µM (inactive); in [17], 27.2 µM (inactive); in assay [18], > 100 µM (inactive). The GI50 in assay [19] and in [20] was > 100 µM (inactive) each time.
